From patent publication US7709471B2, “Compounds” (AstraZeneca AB, priority 2006, dated 2010)

What follows are molecules tested against recombinant Plk1 (Homo sapiens, UniProt P53350) (assay: In Vitro Plk1 Enzyme Assay (SPA, GST-Cdc25C phosphorylation)). Conditions: ATP 64 nM, 90 minutes, read-out: IC50 (Plk1 enzyme inhibition).
Assay type: biochemical

recombinant Plk1, sequence (P53350 whole entry): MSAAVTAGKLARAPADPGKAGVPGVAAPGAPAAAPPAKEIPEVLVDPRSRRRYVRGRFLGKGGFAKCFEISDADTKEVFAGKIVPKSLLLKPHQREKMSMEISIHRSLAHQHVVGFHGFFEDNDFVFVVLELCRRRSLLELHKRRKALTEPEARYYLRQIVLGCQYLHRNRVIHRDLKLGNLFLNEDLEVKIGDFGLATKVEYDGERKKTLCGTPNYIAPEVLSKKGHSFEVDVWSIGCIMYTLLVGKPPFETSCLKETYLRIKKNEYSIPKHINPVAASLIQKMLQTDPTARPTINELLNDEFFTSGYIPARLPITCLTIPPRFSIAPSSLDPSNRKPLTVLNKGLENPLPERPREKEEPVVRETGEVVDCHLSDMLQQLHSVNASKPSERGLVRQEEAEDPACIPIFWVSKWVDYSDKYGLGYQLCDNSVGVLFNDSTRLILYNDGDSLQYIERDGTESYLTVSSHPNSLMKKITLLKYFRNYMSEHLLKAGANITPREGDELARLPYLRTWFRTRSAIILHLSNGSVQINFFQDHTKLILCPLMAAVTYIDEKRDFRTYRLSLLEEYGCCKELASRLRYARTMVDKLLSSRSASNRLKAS

Structure (SMILES)	IC50
C#Cc1cccc(Nc2ncc3c(n2)N(C2CCCC2)CCC(=O)N3C)c1 [Example 168, 6-cyclopentyl-9-[(3-ethynylphenyl)amino]-2-methyl-2,6,8,10-tetrazabicyclo[5.4.0]undeca-8,10,12-trien-3-one]	< 100 µM
CNS(=O)(=O)c1ccccc1Nc1ncc2c(n1)N(C1CCCC1)CCC(=O)N2C [Example 155, 2-[(6-cyclopentyl-2-methyl-3-oxo-2,6,8,10-tetrazabicyclo[5.4.0]undeca-8,10,12-trien-9-yl)amino]-N-methyl-benzenesulfonamide]	< 100 µM
CCc1cccc(Nc2ncc3c(n2)N(C2CCCC2)CCC(=O)N3C)c1 [Example 166, 6-cyclopentyl-9-[(3-ethylphenyl)amino]-2-methyl-2,6,8,10-tetrazabicyclo[5.4.0]undeca-8,10,12-trien-3-one]	< 100 µM
CSc1cccc(Nc2ncc3c(n2)N(C2CCCC2)CCC(=O)N3C)c1 [Example 163, 6-cyclopentyl-2-methyl-9-[(3-methylsulfanylphenyl)amino]-2,6,8,10-tetrazabicyclo[5.4.0]undeca-8,10,12-trien-3-one]	< 100 µM
CC(C)c1cccc(Nc2ncc3c(n2)N(C2CCCC2)CCC(=O)N3C)c1 [Example 174, 6-cyclopentyl-2-methyl-9-[(3-propan-2-ylphenyl)amino]-2,6,8,10-tetrazabicyclo[5.4.0]undeca-8,10,12-trien-3-one]	< 100 µM

Other lines, results leading:

IC50	Structure (SMILES)
< 0.3 µM	CC(C)N1CCC(=O)N(C)c2cnc(Nc3ccc(C(=O)NCC(C)(C)CN(C)C)cc3)nc21 [Example 222, N-(3-dimethylamino-2,2-dimethyl-propyl)-4-[(2-methyl-3-oxo-6-propan-2-yl-2,6,8,10-tetrazabicyclo[5.4.0]undeca-7,9,11-trien-9-yl)amino]benzamide]
< 100 µM	O=C1CCN(c2ccccc2)c2nc(Nc3ccc(C(=O)NCCN4CCOCC4)cc3Cl)ncc2N1 [Example 247, 3-chloro-N-(2-morpholin-4-ylethyl)-4-[(3-oxo-6-phenyl-2,6,8,10-tetrazabicyclo[5.4.0]undeca-7,9,11-trien-9-yl)amino]benzamide]
< 1 µM	COC(=O)[C@H]1CC[C@@H](NC(=O)c2ccc(Nc3ncc4c(n3)N(C3CCCC3)CCC(=O)N4C)c(OC)c2)C1 [Example 65, Methyl(1S,3R)-3-[[4-[(6-cyclopentyl-2-methyl-3-oxo-2,6,8,10-tetrazabicyclo[5.4.0]undeca-8,10,12-trien-9-yl)amino]-3-methoxy-benzoyl]amino]cyclopentane-1-carboxylate]
< 1 µM	COc1cc(C(=O)NCCN2CCOCC2)ccc1Nc1ncc2c(n1)N(C1CCCC1)CCC(=O)N2 [Example 250, 4-[(6-cyclopentyl-3-oxo-2,6,8,10-tetrazabicyclo[5.4.0]undeca-8,10,12-trien-9-yl)amino]-3-methoxy-N-(2-morpholin-4-ylethyl)benzamide]
< 1 µM	COc1ccccc1Nc1ncc2c(n1)N(C1CCCC1)CCC(=O)N2C [Example 139, 6-cyclopentyl-9-[(2-methoxyphenyl)amino]-2-methyl-2,6,8,10-tetrazabicyclo[5.4.0]undeca-8,10,12-trien-3-one]
< 1 µM	COc1cc(C(=O)NC2CCN(C)CC2)ccc1Nc1ncc2c(n1)N(Cc1csc(C)n1)CCC(=O)N2C [Example 216, 3-methoxy-4-[[2-methyl-6-[(2-methyl1,3-thiazol-4-yl)methyl]-3-oxo-2,6,8,10-tetrazabicyclo[5.4.0]undeca-7,9,11-trien-9-yl]amino]-N-(1-methyl-4-piperidyl)benzamide]
< 0.3 µM	COc1cc(C(=O)N[C@@H]2CC[C@H](C(=O)O)C2)ccc1Nc1ncc2c(n1)N(C1CCCC1)CCC(=O)N2C [Example 87, (1S,3R)-3-[[4-[(6-cyclopentyl-2-methyl-3-oxo-2,6,8,10-tetrazabicyclo[5.4.0]undeca-8,10,12-trien-9-yl)amino]-3-methoxy-benzoyl]amino]cyclopentane-1-carboxylic acid]
